According to patent publication US20260092315A1, “COMPOSITIONS AND METHODS FOR DISCOVERING GENE REGULATION” (UNIVERSITY OF UTAH RESEARCH FOUNDATION, priority 2022, published 2026):

Tests used:
p53 protein = p53 protein level after Nutlin-3a treatment of HCT116 cells; type: cell-based; settings: HCT116 cells (wildtype for TP53)
Text: (§1) FIGS. 3A-3D show TRoUT-FISH positively identifies known mechanisms of gene regulation. Treatment with Nutlin-3a FIG. 3A) stabilizes p53 protein and FIG. 3B) induces CDKN1A transcription. FIG. 3C) FISH and flow cytometry detects drug induced changes in CDKN1A mRNA levels. FIG. 3D) MAGeCK analysis of Nutlin-3a TRoUT-FISH with CDKN1A as the elucidator. ****p<0.0001 T-test.
(§2) The small molecule Nutlin-3a, which inhibits the interaction between MDM2 and p53 and, in doing so, prevents the proteolytic degradation of p53 and permits activation of downstream targets such as CDKN1A, has been used. […] These changes were then assayed using FISH coupled with flow cytometry (FIG. 2). […] A CRISPR screen was performed in HCT116 cells stably expressing Cas9 with a small library targeting ˜1500 transcription factors, including ten sgRNAs against TP53. After acute selection, cells were treated with vehicle or Nutlin-3a and the transcript abundance of CDKN1A was determined by FISH. CDKN1Alow and CDKN1A high populations were sorted by flow cytometry (e.g. FACS), isolated genomic DNA, and sequenced sgRNAs (FIG. 2). This screen positively identified TP53 as the critical mediator of Nutlin-3a induced CDKN1A expression ([…]).

CDKN1A transcript = CDKN1A transcript after Nutlin-3a treatment of HCT116 cells; type: cell-based; settings: HCT116 cells (wildtype for TP53)
Text: as §1, §2

CDKN1A mRNA = experiment: FISH coupled with flow cytometry for CDKN1A mRNA in HCT116 cells; type: cell-based
Protocol: as §1
TRoUT-FISH is performed on bulk populations which sidesteps the cost and data sparsity issues common to single cell RNA-seq assays. As TRoUT-FISH experiments are performed without any genetic manipulations prior to CRISPR perturbations, the system is ideally positioned to integrate with other data, including ChIP-seq, ATAC-seq, and ENCODE resources. These other resources provide complementary mechanistic insight of gene regulation. Cells are infected at low MOI with virus encoding a CRISPR library selected based on antibiotic resistance. Cells are cultured for eight days to allow CRISPR editing to occur. […]
The small molecule Nutlin-3a, which inhibits the interaction between MDM2 and p53 and, in doing so, prevents the proteolytic degradation of p53 and permits activation of downstream targets such as CDKN1A, has been used. […] After acute selection, cells were treated with vehicle or Nutlin-3a and the transcript abundance of CDKN1A was determined by FISH. […]

CDKN1A RNA = experiment: MACAREL-FISH barcode recovery with CDKN1A as target RNA; type: cell-based; settings: vehicle versus Nutlin-3a barcoded cells, FACS sorted
Text: FIG. 11A-C show Method to Associate Compounds with Altered RNA levels via Fluorescent In Situ Hybridization (MACAREL-FISH). FIG. 11A) Schematic of MACAREL-FISH. FIG. 11B) Schematic of sorting strategy. Magenta boxes indicate the sorted population. Low and high populations were sorted from the Mix 50:50 population.
In brief, cells are arrayed in a 96 well plate (FIG. 11A). MACAREL-FISH is amenable to any cell type including: immortalized cancer cell lines, primary cells, patient cells, and organoids. Each well is incubated with a specific compound. Before, during, or after treatment cells are barcoded (FIG. 11A). Cells are then detached from the plate and fixed with paraformaldehyde (PFA) which locks cells in their current state. Cells are then pooled permeabilized and stained with a DNA dye and incubated overnight in hybridization buffer in the presence of specific DNA oligonucleotides that anneal to an RNA of interest. The DNA oligonucleotides are computationally designed genome-wide to ensure specificity for the elucidator. […] Based on the possible sequence space of barcodes and read length on NGS, this approach can be scaled almost ad infinitum.
Cells were treated with either vehicle control or the small molecule Nutlin-3a. […] After sorting, DNA was extracted and barcodes identity and abundance were measured by sequencing.

MYC protein = MYC protein level by immunoblot in K562 cells treated with JQ1; type: cell-based; settings: 1 uM JQ1 for 6 h
Protocol: (§3) FIGS. 4A-4C show TRoUT-FISH identifies MYC and BRD4 as regulators of glycolysis. FIG. 4A) TRoUT-FISH data from ENO1 and PGK1 screens. B,C) K562 cells were treated with 1 uM JQ1 for 6 h. FIG. 4B) MYC protein level measured by immunoblot and FIG. 4C) transcripts measured by qPCR. **p<0.01, ****p<0.0001 T-test.
(§4) First, TRoUT-FISH experiments were performed assaying the regulation of ENO1 and PGK1 in K562 cells (FIG. 4A). […] MYC is a well-characterized activator of glycolytic gene expression, and as such served as an internal positive control. BRD4 is a member of the bromodomain and extraterminal domain (BET) family of proteins and is known to regulate MYC at the transcript level.

MYC transcript = MYC transcript by qPCR in K562 cells treated with JQ1; type: cell-based; settings: 1 uM JQ1 for 6 h
Protocol: as §3, §4

ENO1 transcript = ENO1 transcript by qPCR in K562 cells treated with JQ1; type: cell-based; settings: 1 uM JQ1 for 6 h
Protocol: as §3, §4

PGK1 transcript = PGK1 transcript by qPCR in K562 cells treated with JQ1; type: cell-based; settings: 1 uM JQ1 for 6 h
Protocol: as §3, §4

ERRFI1 = settings: HCT116 cells treated with JQ1, reprocessed RNA-seq data; cited from earlier work

Question: Which results are given for `COc1ccc(C2=N[C@@H](c3ccc(Cl)cc3)[C@@H](c3ccc(Cl)cc3)N2C(=O)N2CCNC(=O)C2)c(OC(C)C)c1` [Nutlin-3a]?
Answer: p53 protein level (p53 protein): stabilization of p53 protein; CDKN1A transcript level (CDKN1A transcript): induction of CDKN1A transcript; CDKN1A FISH fluorescence by flow cytometry (CDKN1A mRNA; HCT116 cells, versus control and inactive enantiomer): higher fluorescence than either the control or inactive enantiomer; CDKN1A FISH signal upon treatment (CDKN1A mRNA; stable TP53 knockout lines): no induction of CDKN1A signal; Effect on CDKN1A RNA abundance (barcode recovery from sorted populations) (CDKN1A RNA): activator of CDKN1A RNA abundance

Question: With `Cc1sc2c(c1C)C(c1ccc(Cl)cc1)=N[C@@H](CC(=O)OC(C)(C)C)c1nnc(C)n1-2` [JQ1] as the molecule, how does the MYC protein level (MYC protein) read?
Answer: significantly downregulated

Question: What about the MYC transcript level (MYC transcript) of the same molecule?
Answer: significantly downregulated

Question: And the ENO1 transcript level (ENO1 transcript)?
Answer: significantly downregulated

Question: What about the PGK1 transcript level (PGK1 transcript) of the same molecule?
Answer: significantly downregulated

Question: What about the ERRFI1 levels (ERRFI1) of the same molecule?
Answer: reduction in ERRFI1 levels
